Data: ChEMBL document CHEMBL4390686, “Design, Synthesis, and Pharmacokinetic Evaluation of Phosphate and Amino Acid Ester Prodrugs for Improving the Oral Bioavailability of the HIV-1 Protease Inhibitor Atazanavir” (J Med Chem, 2019)
Converted amounts (≈) assume the structure as drawn.

Legend:
[1] = Aqueous solubility of the compound in pH 5 buffer by RP-UPLC analysis; type: physicochemical
[2] = physchem; conditions: 30% CH3CN/HCl buffer, pH 1
Description: Half life in pH 1 30%CH3CN/HCl buffer at 50 mM by RP-UPLC analysis

[3] = physchem; conditions: HCl buffer, pH 1
Description: Aqueous solubility of the compound in pH 1 HCl buffer by RP-UPLC analysis

[4] = rat, in vivo, po, 3 mg/kg
[5] = Cmax in cannulated Sprague-Dawley rat assessed as atazanavir level at 30 mg/kg equiv of atazanavir administered orally by UPLC/MS/MS analysis; type: ADME, organism-based; design: dose 30 mg/kg, route oral; conditions: in vivo, po
[6] = physchem; conditions: 30% CH3CN/phosphate buffer, pH 6.5
Description: Half life in pH 6.5 30%CH3CN/phosphate buffer at 50 mM by RP-UPLC analysis

[7] = Total AUC in cannulated Sprague-Dawley rat assessed as atazanavir level at 6 mg/kg equiv of atazanavir administered orally by UPLC/MS/MS analysis relative to atazanavir alone; type: ADME, organism-based; conditions: in vivo, po
[8] = Aqueous solubility of the compound in pH 4 citrate buffer by RP-UPLC analysis; type: physicochemical
[9] = Ratio of test compound to atazanavir aqueous solubility in pH 4 acetate buffer by RP-UPLC analysis; type: physicochemical
[10] = Stability in simulated gastric fluid assessed as porcine pepsin-mediated compound hydrolysis at 1 mL measured up to 1 hr at pH 1.2 by HPLC analysis; type: ADME, Sus scrofa; conditions: pig, isolated protein, pH 1.2, 1 h
[11] = Aqueous solubility of the compound in pH 3 buffer by RP-UPLC analysis; type: physicochemical
[12] = physchem; conditions: phosphate buffer, pH 6.5
Description: Aqueous solubility of the compound in pH 6.5 phosphate buffer by RP-UPLC analysis

[13] = Cmax in cannulated Sprague-Dawley rat assessed as atazanavir level at 6 mg/kg equiv of atazanavir administered orally by UPLC/MS/MS analysis; type: ADME, organism-based; design: dose 6 mg/kg, route oral; conditions: in vivo, po
[14] = physchem; conditions: phosphate buffer, pH 7.4
Description: Aqueous solubility of the compound in pH 7.4 phosphate buffer by RP-UPLC analysis

[15] = Tmax in cannulated Sprague-Dawley rat assessed as atazanavir level at 30 mg/kg equiv of atazanavir administered orally by UPLC/MS/MS analysis; type: ADME, organism-based; conditions: in vivo, po
[16] = Prodrug conversion in rat hepatocytes assessed as pseudo first order rate constant for atazanavir formation at 1 uM in presence of esterase inhibitor PMSF/CYP450 inhibitor ABT; type: ADME, cell-based, Hepatocyte
[17] = Drug recovery in intestinal homogenates of closed loop rat intestinal model at 1 mg/kg administered as cassette dose by LC/MS analysis; type: ADME, organism-based, Intestine; conditions: intestinal homogenate, other: closed loop intestinal model, read-out: Drug recovery
[18] = Drug recovery in mesenteric vein plasma of closed loop rat intestinal model at 1 mg/kg administered as cassette dose by LC/MS analysis; type: ADME, organism-based; conditions: in vivo
[19] = AUClast in cannulated Sprague-Dawley rat assessed as atazanavir level at 6 mg/kg equiv of atazanavir administered orally by UPLC/MS/MS analysis; type: ADME, organism-based; design: dose 6 mg/kg, time 0 - last, route oral; conditions: in vivo, po
[20] = Drug recovery in intestinal content of closed loop rat intestinal model at 1 mg/kg administered as cassette dose by LC/MS analysis; type: ADME, organism-based; conditions: in vivo
[21] = molecular target: T1, UGT1A1 (Homo sapiens, UniProt P22309); assay: Ratio of test compound IC50 to atazanavir IC50 for UGT1A1 in human liver microsomes; type: ADME; conditions: read-out: Ratio IC50
T1 sequence (P22309 whole entry): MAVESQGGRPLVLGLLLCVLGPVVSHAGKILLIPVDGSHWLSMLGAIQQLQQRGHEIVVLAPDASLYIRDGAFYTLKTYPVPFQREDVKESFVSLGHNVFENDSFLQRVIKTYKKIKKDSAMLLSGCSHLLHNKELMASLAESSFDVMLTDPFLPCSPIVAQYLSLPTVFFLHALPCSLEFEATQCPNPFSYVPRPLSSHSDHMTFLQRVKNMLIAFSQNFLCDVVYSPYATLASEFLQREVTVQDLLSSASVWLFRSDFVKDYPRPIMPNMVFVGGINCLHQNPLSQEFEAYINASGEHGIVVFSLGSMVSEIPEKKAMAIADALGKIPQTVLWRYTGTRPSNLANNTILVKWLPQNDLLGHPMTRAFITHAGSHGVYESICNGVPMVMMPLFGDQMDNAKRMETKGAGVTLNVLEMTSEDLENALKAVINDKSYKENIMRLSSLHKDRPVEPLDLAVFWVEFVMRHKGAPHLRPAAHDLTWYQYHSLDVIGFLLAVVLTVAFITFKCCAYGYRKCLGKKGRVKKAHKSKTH

[22] = molecular target: T2, UGT1A1 (Rattus norvegicus, UniProt Q64550); assay: Ratio of test compound IC50 to atazanavir IC50 for recombinant rat UGT1A1; type: ADME; conditions: read-out: Ratio IC50
T2 sequence (Q64550 whole entry): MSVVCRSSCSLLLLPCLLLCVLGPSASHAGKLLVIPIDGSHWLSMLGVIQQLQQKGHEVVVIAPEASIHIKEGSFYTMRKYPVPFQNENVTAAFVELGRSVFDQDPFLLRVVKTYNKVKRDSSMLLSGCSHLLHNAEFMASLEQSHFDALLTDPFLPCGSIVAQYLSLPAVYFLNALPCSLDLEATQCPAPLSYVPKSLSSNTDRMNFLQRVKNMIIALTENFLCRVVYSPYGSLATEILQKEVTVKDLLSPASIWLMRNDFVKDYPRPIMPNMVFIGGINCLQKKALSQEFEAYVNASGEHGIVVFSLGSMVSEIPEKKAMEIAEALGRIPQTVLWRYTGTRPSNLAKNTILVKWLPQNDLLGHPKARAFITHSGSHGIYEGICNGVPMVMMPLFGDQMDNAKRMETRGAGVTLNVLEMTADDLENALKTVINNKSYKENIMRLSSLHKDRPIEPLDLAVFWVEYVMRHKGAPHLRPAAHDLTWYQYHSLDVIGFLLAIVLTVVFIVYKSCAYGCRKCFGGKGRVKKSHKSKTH

[23] = physchem; conditions: 30% CH3CN/acetate buffer, pH 4
Description: Half life in pH 4 30%CH3CN/acetate buffer at 50 mM by RP-UPLC analysis

[24] = in vitro; conditions: human, Caco-2
Description: Apparent permeability across apical to basolateral side in human Caco2 cells at 2 uM

[25] = molecular target: T3, UDP-glucuronosyltransferase 1A1 (Rattus norvegicus, UniProt Q64550); assay: Inhibition of recombinant rat UGT1A1 using beta-estradiol as substrate preincubated for 5 mins followed by substrate addition and measured after 40 mins by LC-MS/MS analysis; type: ADME
T3 sequence (Q64550 whole entry): T2 sequence (Q64550 whole entry)

[26] = molecular target: T2, UGT1A1; assay: Ratio of test compound IC50 to atazanavir IC50 for UGT1A1 in rat liver microsomes; type: ADME; conditions: read-out: Ratio IC50
[27] = AUClast in cannulated Sprague-Dawley rat assessed as atazanavir level at 30 mg/kg equiv of atazanavir administered orally by UPLC/MS/MS analysis; type: ADME, organism-based; design: dose 30 mg/kg, route oral, time 0 - last; conditions: in vivo, po
[28] = Cmin in cannulated Sprague-Dawley rat assessed as atazanavir level at 30 mg/kg equiv of atazanavir administered orally measured after 24 hrs by UPLC/MS/MS analysis; type: ADME, organism-based; conditions: in vivo, po, read-out: Cmin
[29] = molecular target: T1, UGT1A1; assay: Ratio of test compound IC50 to atazanavir IC50 for recombinant human UGT1A1; type: ADME; conditions: read-out: Ratio IC50
[30] = Drug metabolism in cannulated Sprague-Dawley rat assessed as prodrug to atazanavir ratio at 30 mg/kg equiv of atazanavir administered orally by UPLC/MS/MS analysis; type: ADME, organism-based; conditions: in vivo, po

Work on `COC(=O)N[C@H](C(=O)N[C@@H](Cc1ccccc1)[C@H](CN(Cc1ccc(-c2ccccn2)cc1)NC(=O)[C@@H](NC(=O)OC)C(C)(C)C)OC(=O)[C@@H](N)Cc1ccccc1)C(C)(C)C` yielded a solubility [1] of 1300 µg/mL (≈ 1530 µM), a half-life at 50000 µM [2] of over 20.8 days and a solubility [3] of over 1500 µg/mL. The Tmax [4] was 0.021 days, the Cmax [5] was 4720 nM and the half-life at 50000 µM [6] was over 20.8 days. The “fold change (FC)” value [7] was 4.1, the solubility [8] was over 1100 µg/mL and the Ratio [9] was 4100. For the same compound, the Stability [10] was “Stable”, the solubility [11] was over 3200 µg/mL and the solubility [12] was 27 µg/mL (≈ 31.7 µM). The Cmax [13] was 550 nM, the solubility [14] was 1 µg/mL (≈ 1.17 µM) and the Tmax [15] was 0.033 days. It also gave a K [16] of 0.0014 min⁻¹, a recovery [17] of 5.6% and a Drug recovery [18] of 2.8%. It also gave an AUClast [19] of 0.913 µM·h, a Drug recovery [20] of 32% and a selectivity ratio [21] of 4.2. The selectivity ratio [22] was 3, the half-life at 50000 µM [23] was over 20.8 days and the Papp A→B at 2 µM [24] was under 1.5 ×10⁻⁶ cm/s. The IC50 [25] was 12.6 µM, the selectivity ratio [26] was 5.7 and the AUClast [27] was 19.67 µM·h. For the same compound, the concentration [28] was 1 nM, the selectivity ratio [29] was 9.3 and the Ratio [30] was 0.3.
